Assay results from patent publication EP0015214B1, “Derivatives of substituted 2-benzoyl glycinanilides, their preparation and their use in anxiolytic medicaments” (PIERRE FABRE S.A., priority 1979, dated 1980).

Assays:
[1] = test system: souris mâles de souche swiss; test: Rotating rod test (Rota-Rod); format: in vivo; conditions: Mus musculus, po, male Swiss mice, 10 per dose, effective if the mouse falls off the rod in less than two minutes, read-out: Rota-Rod v. o. DE50
Description: On réalise cet essai sur des souris mâles de souche swiss. On place la souris sur une tige de bois d'un diamètre de 3 crn, tournant à raison de cinq tours par minute. On choisit les souris qui peuvent rester sur la tige pendant au moins trois minutes au cours d'essais successifs et on les rassemble par groupe de dix pour l'essai de chaque dose.
Si la souris tombe de la tige en moins de deux minutes, on considère le composé essayé comme efficace.
Les résultats sont exprimés en DE50 selon: N. W. Dunham et T. S. Miva (J. Amer. Pharm. Asso., 1957, 46,208).

[2] = Oral toxicity, lethal dose 50 (Miller and Tainter method); conditions: in vivo, lethal dose 50 calculated by the Miller and Tainter method, read-out: Toxicité v. o. DE50
Description: Les composés les plus actifs de la présente invention ont été soumis à des contrôles de toxicité.
La dose létale 50 et les activités pharmacologiques sont rapportées dans le Tableau (I).
La dose létale a été recherchée par voie orale et calculée selon la méthode de Miller et Tainter (Proc. Soc. Exper. Biol. Med., 1944,57,261).

[3] = test system: souris mâles de souche swiss; test: Pentetrazol antagonism (protection against tonic convulsions); format: in vivo; conditions: Mus musculus, po, 60 min before 125 mg/kg s.c. pentetrazol, male Swiss mice, observed for two hours, read-out: Pentétrazol v. o. DE50
Protocol: Ce test est réalisé sur un groupe de dix souris mâles de souche Swiss. Dans un délai de quinze minutes après l'injection sous-cutanée de 125 mg/kg de pentétrazol, les souris ont des convulsions toniques dont l'issue est fatale. Pour l'essai, on administre par voie orale les composés soixante minutes avant l'injection de pentétrazol. Les animaux sont observes pendant deux heures après administration du pentétrazol.
Les résultats sont exprimés par la dose efficace DE50 selon Goodmann et Coll. (J. Pharmacol. 108, 1953).

Row | Compound | ED50 [1] | LD50 [2] | ED50 [3]
1 | CN(C(=O)CNC1CCCCC1)c1ccc(C(F)(F)F)cc1C(=O)c1ccccc1 [Exemple 12, N-méthyl N'-cyclohexyl (benzoyf-2' trifluorométhyl-4') glycylanilide] | 8 mg/kg | > 1000 mg/kg | 1 mg/kg
2 | CN(C(=O)CNC1CCCCC1)c1ccc(Br)cc1C(=O)c1ccccc1 [Br] | 22 mg/kg | > 1000 mg/kg | –
3 | CN(C(=O)CNC1CCCCC1)c1ccc(C#N)cc1C(=O)c1ccccc1 [Exemple 13, Chlorhydrate de N-méthyl N'-cyclohexyl (benzoyl-2' cyano-4') glycylanilide] | 7 mg/kg | > 1000 mg/kg | 0.9 mg/kg
